Entries after “also recorded” stand apart in the source; their conditions may differ.
B1: huC242-DM3: huC242 antibody linked to DM3 (4a), on the average 3.2-3.5 DM3 molecules per antibody molecule (conjugate, chains of the INN, looked up)
VH: QVQLVQSGAEVKKPGETVKISCKASDYTFTYYGMNWVKQAPGQGLKWMGWIDTTTGEPTYAQKFQGRIAFSLETSASTAYLQIKSLKSEDTATYFCARRGPYNWYFDVWGQGTTVTVSS
VL: DIVMTQSPLSVPVTPGEPVSISCRSSKSLLHSNGNTYLYWFLQRPGQSPQLLIYRMSNLVSGVPDRFSGSGSGTAFTLRISRVEAEDVGVYYCLQHLEYPFTFGPGTKLELK
modifications: DM3 maytansinoid conjugate
notes: huC242 antibody linked to DM3 (4a), on the average 3.2-3.5 DM3 molecules per antibody molecule
B2: huC242-DM4: huC242 antibody linked to DM4 (4b), on the average 3.2-3.5 DM4 molecules per antibody molecule (conjugate, chains of the INN, looked up)
VH: B1 VH
VL: B1 VL
modifications: DM4 maytansinoid conjugate
notes: huC242 antibody linked to DM4 (4b), on the average 3.2-3.5 DM4 molecules per antibody molecule
B3: huMy9-6-DM1: huMy9-6 conjugate of a previously described maytansinoid (DM1) (conjugate, chains of the INN, looked up)
VH: QVQLVESGGGVVQPGRSLRLSCAASGFTFSSFGMHWVRQAPGKGLEWVAYISSGSFTIYYADSVKGRFTISRDNSKNTLYLQMNSLRAEDTAVYYCARMRKGYAMDYWGQGTLVTVSS
VL: DVVMTQSPLSLPVTLGQPASISCRSSQIIIHSDGNTYLEWFQQRPGQSPRRLIYKVSNRFSGVPDRFSGSGSGTDFTLKISRVEAEDVGVYYCFQGSHVPHTFGQGTKVEIK
modifications: DM1 maytansinoid conjugate

How the values were obtained:
[1] = system: Lewis lung carcinoma system; conditions: in vivo; cited from earlier work
L1210 cells = L1210 cells treated in vivo; cited from earlier work
[2] = system: human nasopharyngeal carcinoma cells; conditions: cited from earlier work
[3] = system: human B-16 melanocarcinoma system; conditions: in vivo; cited from earlier work
[4] = system: human acute lymphoblastic leukemia line CEM; conditions: in vitro; cited from earlier work
[5] = system: L1210 mouse leukemia system; conditions: in vivo; cited from earlier work
[6] = system: human melanoma cell line A-375; assay: In vitro cytotoxicity, clonogenic assay, A-375 cells; format: cell-based; conditions: for IC50: free maytansinoid, 72 hours exposure, clonogenic assay, read-out: IC50 towards A-375 cells; for fold less sensitive, antigen negative A-375 cells versus COLO 205 cells: antibody-maytansinoid conjugate
Method: (§1) The KB (ATCC CCl-17) cell line is of human epithelial origin. The SK-BR-3 (ATCC HTB-30) cell line was established from a human breast adenocarcinoma. The human colon tumor cell lines COLO 205 (ATCC CCL-222) and HT-29 (ATCC HTB 38), the human melanoma cell line A-375 (ATCC CRL 1619), the human Burkitts lymphoma cell line Ramos (ATCC CRL-1596) and the human myeloid leukemia cell line HL-60 (ATCC CCL-240) were all obtained from ATCC, Maryland. Cell lines were grown in Dulbecco's modified Eagles Medium (DMEM, Biowhittaker, Walkersville, Md.) with L-glutamine supplemented with 10% fetal bovine serum (Hyclone, Logan, Utah) and 50 μg/mL gentamycin sulfate (Life Technologies, Rockville, Md.). Cells were maintained at 36-37.5° C. in a humidified atmosphere that contained 6% CO2.
(§2) The cytotoxicity study performed used a clonogenic assay. The test cell lines were plated into 6-well culture dishes at a constant number of 1000 cells per well. Cells were incubated with varying concentrations (0 to 3 nM) of the various maytansinoids (free or conjugated to antibodies) for 72 hours. The medium was then aspirated from the plates and replaced with fresh medium. Cultures were allowed to grow, and form colonies, for a total of 7-10 days after plating. The cultures were then fixed and stained with 0.2% crystal violet in 10% formalin/PBS and colonies were counted. Plating efficiency of non-treated cells (medium alone) was determined by dividing the number of colonies counted by the number of cells plated. Surviving fraction of cells exposed to the drugs was determined by dividing the number of colonies in wells that were exposed to the drug by the number of colonies in the control wells.

SK-BR-3 cells = assay: In vitro cytotoxicity, clonogenic assay, SK-BR-3 cells; format: cell-based, human; conditions: free maytansinoid, 72 hours exposure, read-out: IC50 towards SK-Br-3 cells
Method: as §1
as §2, with “Cells were incubated with varying concentrations (0 to 3 nM) of the various maytansinoids (free or conjugated to antibodies) for 72 hours. The medium was then aspirated from the plates and replaced with fresh medium. Cultures were allowed to grow, and form colonies, for a total of 7-10 days after plating.” left out

[7] = system: HT-29 human colon tumor xenografts; assay: In vivo efficacy against HT-29 xenografts; set-up: species or system mouse; conditions: SCID mice, maytansinoid dose of 75 μg/kg, qd×5, intravenously
Method: (§3) Five-week-old female SCID mice (20 animals) were inoculated subcutaneously in the right flank with HT-29 human colon carcinoma cells (1.5×10^6 cells/mouse) in 0.1 mL of serum-free medium. The tumors were grown for 11 days to an average size of 100 mm^3. The animals were then randomly divided into four groups (5 animals per group). The first group received huC242-DM1 conjugate (DM1 dose of 75 μg/kg, qd×5) administered intravenously. The second group received huC242-DM3 conjugate (DM3 dose of 75 μg/kg, qd×5) administered intravenously. The third group received huC242-DM4 conjugate (DM4 dose of 75 μg/kg, qd×5), while a fourth group of animals served as controls and received PBS using the same treatment schedule as in groups 1-3.
The sizes of the tumors were measured twice weekly and the tumor volumes were calculated with the formula: tumor volume=½(length×width×height). The weight of the animals was also measured twice per week. The tumors in the control group of mice grew to a size of nearly 1000 mm^3 in 35 days.

[8] = system: COLO 205 human colon tumor xenografts; assay: In vivo efficacy against COLO 205 xenografts; set-up: species or system mouse; conditions: SCID mice, maytansinoid dose of 75 μg/kg, qd×5, intravenously
Method: as §3, with “COLO 205” for “HT-29”
The sizes of the tumors were measured twice weekly and the tumor volumes were calculated with the formula: tumor volume=½(length×width×height). The weight of the animals was also measured twice per week. The tumors in the control group of mice grew to a size of nearly 900 mm^3 in 24 days.

[9] = system: antigen positive COLO 205 cells; assay: In vitro cytotoxicity of antibody-maytansinoid conjugates, clonogenic assay, COLO 205 cells; format: cell-based, human; conditions: antibody-maytansinoid conjugate; read-out: IC50 towards antigen positive COLO 205 cells
Method: Conjugates of cell-binding agents with maytansinoid drugs of the invention can be evaluated for their ability to suppress proliferation of various unwanted cell lines in vitro (FIG. 6). For example, cell lines such as the human colon carcinoma line COLO 205, the human melanoma cell line A-375, the human myeloid leukemia cell line HL60 can be used for the assessment of cytotoxicity of these conjugates. Cells to be evaluated can be exposed to the compounds for 24 hours and the surviving fractions of cells measured in direct assays by known methods. IC50 values can then be calculated from the results of the assays.
The KB (ATCC CCl-17) cell line is of human epithelial origin. The SK-BR-3 (ATCC HTB-30) cell line was established from a human breast adenocarcinoma. […]
The cytotoxicity study performed used a clonogenic assay. […] The cultures were then fixed and stained with 0.2% crystal violet in 10% formalin/PBS and colonies were counted. Plating efficiency of non-treated cells (medium alone) was determined by dividing the number of colonies counted by the number of cells plated. Surviving fraction of cells exposed to the drugs was determined by dividing the number of colonies in wells that were exposed to the drug by the number of colonies in the control wells.

[10] = system: human HL-60 tumor xenografts; assay: In vivo efficacy of huMy9-6-DM4 against HL-60 xenografts in SCID mice (FIG. 11); set-up: species or system mouse
Method: The efficacy of huMy9-6-DM4 in vivo was determined in SCID mice bearing human HL-60 tumor xenografts. HL-60 cells were injected subcutaneously and tumors were allowed to grow to an average size of 100 mm^3. Dosage is expressed as μg DM4 in the conjugate, which corresponds to an antibody dose of approximately 67 μg antibody per μg of DM4. […] The efficacy of huMy9-6-DM4 was also compared with that of huMy9-6-DM1. […] HuMy9-6-DM4 maintained the animals in complete remission (CR) for nearly sixty days, whereas animals treated with huMy9-6-DM1 relapsed after about 20 days in CR.

Row | Molecule | IC50 [6] [nM] | IC50 (SK-BR-3 cells) [nM] | tumor growth delay [7] [days] | IC50 [9] [nM] | fold less sensitive, antigen negative A-375 cells versus COLO 205 cells [6] | other results
1 | COc1cc2cc(c1Cl)N(C)C(=O)C[C@H](OC(=O)[C@H](C)N(C)C(C)=O)[C@]1(C)O[C@H]1[C@H](C)[C@@H]1C[C@@](O)(NC(=O)O1)[C@H](OC)/C=C/C=C(\C)C2 [maytansine, Maytansine] |  |  |  |  |  | inhibitory activity [1]: significant inhibitory activity; cells accumulating in mitosis (L1210 cells): 67%; inhibition of in vitro growth [2]: active inhibitor; inhibitory activity [3]: significant inhibitory activity; inhibitory concentration, as low as [4]: ≥ 10^−7 μg/ml; inhibitory activity [5]: significant inhibitory activity
2 | COc1cc2cc(c1Cl)N(C)C(=O)CC(OC(=O)[C@@H](C)N(C)C(=O)CCC(C)(C)SSC)C1(C)OC1C(C)C1CC(O)(NC(=O)O1)C(OC)/C=C/C=C(\C)C2 (some centres unmarked) [4e, N^2′-deacetyl-N^2′-(4-methyl-4-methyldithio-1-oxopentyl)maytansine] | 0.032 | 0.009 |  |  |  | 
3 | COc1cc2cc(c1Cl)N(C)C(=O)C[C@H](OC(=O)[C@H](C)N(C)C(=O)CCC(C)SSC)[C@]1(C)O[C@H]1[C@H](C)[C@@H]1C[C@@](O)(NC(=O)O1)[C@H](OC)/C=C/C=C(\C)C2 (some centres unmarked) [4c, N^2′-deacetyl-N^2′-(4-methyldithio-1-oxopentyl)maytansine] | 0.015 | 0.007 |  |  |  | 
4 | B1 |  |  | 28 | 0.013 | about 500 fold | complete tumor regression lasting [8]: 45 days
5 | B2 |  |  | 36 | 0.011 | about 500 fold | tumor response (regression, cures) [8]: cures of all the treated mice; also recorded: cures of all the treated animals
6 | B3 |  |  |  |  |  | time in complete remission (CR) ([10]; SCID mice, i.v. once a day for 5 days): about 20 days; tumor growth delay ([10]; subcutaneous HL-60 xenograft, equivalent dose, FIG. 11): about 48 days

Reference: patent US8841425B2, “Cytotoxic agents comprising new maytansinoids” (ImmunoGen, Inc., priority 2003, dated 2014)
